Literature values as cited in patent US20070264370A1, “Composition and methods for the treatment of joint pain using Angelica gigas Nakai extract and powder as combined with Glucosamine Sulfate, or Chondroitin Sulfate and HCL, or MSM, or aspirin, or Celedrin, and as combinations thereof in powder, pill, capsule, spray, liquid, and gelcap form” (priority 2006, published 2007).

Conditions: in mammal; oral administration in rats (Kim et al. 2003)

elimination half life (T1/2): about 3 hours
Compound: CC1(C)Oc2cc3oc(=O)ccc3cc2C[C@@H]1O [decursinol, Decursinol]
